{"source": "patent US10479777B2", "about": "“Herbicidal azines” (BASF SE, priority 2013, dated 2019)", "test_in_all_cases": "greenhouse test, pre-emergence treatment", "assay_type_in_all_cases": "in vivo", "details_in_all_cases": "scale from 0 to 100", "key": {"Amaranthus retroflexus": {"system": "Amaranthus retroflexus", "source_text": "(§1) The culture containers used were plastic flowerpots containing loamy sand with approximately 3.0% of humus as the substrate. The seeds of the test plants were sown separately for each species.\n(§2) For the pre-emergence treatment, the active ingredients, which had been suspended or emulsified in water, were applied directly after sowing by means of finely distributing nozzles. The containers were irrigated gently to promote germination and growth and subsequently covered with transparent plastic hoods until the plants had rooted. This cover caused uniform germination of the test plants, unless this had been impaired by the active ingredients. For the post-emergence treatment, the test plants were first grown to a height of 3 to 15 cm, depending on the plant habit, and only then treated with the active ingredients which had been suspended or emulsified in water. For this purpose, the test plants were either sown directly and grown in the same containers, or they were first grown separately as seedlings and transplanted into the test containers a few days prior to treatment.\n(§3) Depending on the species, the plants were kept at 10-25° C. or 20-35° C., respectively. The test period extended over 2 to 4 weeks. During this time, the plants were tended, and their response to the individual treatments was evaluated.\n(§4) Evaluation was carried out using a scale from 0 to 100. 100 means no emergence of the plants, or complete destruction of at least the aerial moieties, and 0 means no damage, or normal course of growth. A moderate herbicidal activity is given at values of at least 60, a good herbicidal activity is given at values of at least 70, and a very good herbicidal activity is given at values of at least 85.\n(§5) The plants used in the greenhouse experiments were of the following species: […]"}, "Echinocloa crus-galli": {"system": "Echinocloa crus-galli", "source_text": "as §1, §2, §3, §4, §5"}, "Setaria faberi": {"system": "Setaria faberi", "source_text": "as §1, §2, §3, §4, §5"}, "Abutilon theophrasti": {"system": "Abutilon theophrasti", "source_text": "as §1, §2, §3, §4, §5"}}, "data": [{"smiles": "Nc1nc(Nc2c(F)c(F)nc(F)c2F)nc(C2(Cl)CCCC2)n1", "note": "[Example 58]", "values": [{"measurement": "herbicidal activity", "setting": "Amaranthus retroflexus; 250 g/ha", "value": "very good (a very good herbicidal activity is given at values of at least 85)"}, {"measurement": "herbicidal activity", "setting": "Echinocloa crus-galli; 250 g/ha", "value": "very good (a very good herbicidal activity is given at values of at least 85)"}, {"measurement": "herbicidal activity", "setting": "Setaria faberi; 250 g/ha", "value": "very good (a very good herbicidal activity is given at values of at least 85)"}]}, {"smiles": "CC1(c2nc(N)nc(Nc3c(F)c(F)nc(F)c3F)n2)CCCC1", "note": "[Example 67]", "values": [{"measurement": "herbicidal activity", "setting": "Amaranthus retroflexus; 250 g/ha", "value": "very good (a very good herbicidal activity is given at values of at least 85)"}]}, {"smiles": "Cc1c(F)c(F)nc(Nc2nc(N)nc(C(C)(C)F)n2)c1F", "note": "[Example 29]", "values": [{"measurement": "herbicidal activity", "setting": "Amaranthus retroflexus; 125 g/ha", "value": "very good (a very good herbicidal activity is given at values of at least 85)"}, {"measurement": "herbicidal activity", "setting": "Abutilon theophrasti; 125 g/ha", "value": "very good (a very good herbicidal activity is given at values of at least 85)"}, {"measurement": "herbicidal activity", "setting": "Setaria faberi; 125 g/ha", "value": "very good (a very good herbicidal activity is given at values of at least 85)"}]}, {"smiles": "COc1c(F)c(F)nc(Nc2nc(N)nc(C(C)(C)F)n2)c1F", "note": "[Example 31]", "values": [{"measurement": "herbicidal activity", "setting": "Amaranthus retroflexus; 250 g/ha", "value": "very good (a very good herbicidal activity is given at values of at least 85)"}, {"measurement": "herbicidal activity", "setting": "Abutilon theophrasti; 250 g/ha", "value": "very good (a very good herbicidal activity is given at values of at least 85)"}, {"measurement": "herbicidal activity", "setting": "Setaria faberi; 250 g/ha", "value": "very good (a very good herbicidal activity is given at values of at least 85)"}]}, {"smiles": "Nc1nc(Nc2c(F)c(F)nc(F)c2F)nc(C2(F)CCCC2)n1", "note": "[Example 66]", "values": [{"measurement": "herbicidal activity", "setting": "Amaranthus retroflexus; 250 g/ha", "value": "very good (a very good herbicidal activity is given at values of at least 85)"}, {"measurement": "herbicidal activity", "setting": "Abutilon theophrasti; 250 g/ha", "value": "very good (a very good herbicidal activity is given at values of at least 85)"}, {"measurement": "herbicidal activity", "setting": "Setaria faberi; 250 g/ha", "value": "very good (a very good herbicidal activity is given at values of at least 85)"}]}, {"smiles": "CC(C)(C)c1nc(N)nc(Nc2c(F)c(F)nc(F)c2F)n1", "note": "[Example 62]", "values": [{"measurement": "herbicidal activity", "setting": "Amaranthus retroflexus; 250 g/ha", "value": "very good (a very good herbicidal activity is given at values of at least 85)"}, {"measurement": "herbicidal activity", "setting": "Abutilon theophrasti; 250 g/ha", "value": "very good (a very good herbicidal activity is given at values of at least 85)"}, {"measurement": "herbicidal activity", "setting": "Setaria faberi; 250 g/ha", "value": "very good (a very good herbicidal activity is given at values of at least 85)"}]}, {"smiles": "CCC(C)(F)c1nc(N)nc(Nc2nc(F)c(F)cc2F)n1", "note": "(racemic) [Example 14]", "values": [{"measurement": "herbicidal activity", "setting": "Amaranthus retroflexus; 62.5 g/ha", "value": "very good (a very good herbicidal activity is given at values of at least 85)"}, {"measurement": "herbicidal activity", "setting": "Abutilon theophrasti; 62.5 g/ha", "value": "very good (a very good herbicidal activity is given at values of at least 85)"}, {"measurement": "herbicidal activity", "setting": "Setaria faberi; 62.5 g/ha", "value": "very good (a very good herbicidal activity is given at values of at least 85)"}]}, {"smiles": "CCC(C)c1nc(N)nc(Nc2c(F)c(F)nc(F)c2F)n1", "note": "(centres unmarked) [Example 69]", "values": [{"measurement": "herbicidal activity", "setting": "Amaranthus retroflexus; 125 g/ha", "value": "very good (a very good herbicidal activity is given at values of at least 85)"}, {"measurement": "herbicidal activity", "setting": "Abutilon theophrasti; 125 g/ha", "value": "very good (a very good herbicidal activity is given at values of at least 85)"}]}, {"smiles": "CC(C)(F)c1nc(N)nc(Nc2c(F)ccnc2F)n1", "note": "[Example 48]", "values": [{"measurement": "herbicidal activity", "setting": "Amaranthus retroflexus; 125 g/ha", "value": "very good (a very good herbicidal activity is given at values of at least 85)"}]}, {"smiles": "Nc1nc(Nc2nc(F)c(F)c(Cl)c2F)nc(C2(F)CCCC2)n1", "note": "[Example 12]", "values": [{"measurement": "herbicidal activity", "setting": "Amaranthus retroflexus; 125 g/ha", "value": "very good (a very good herbicidal activity is given at values of at least 85)"}, {"measurement": "herbicidal activity", "setting": "Echinocloa crus-galli; 125 g/ha", "value": "very good (a very good herbicidal activity is given at values of at least 85)"}, {"measurement": "herbicidal activity", "setting": "Setaria faberi; 125 g/ha", "value": "very good (a very good herbicidal activity is given at values of at least 85)"}]}, {"smiles": "CCC(F)(CC)c1nc(N)nc(Nc2nc(F)c(F)c(Cl)c2F)n1", "note": "[Example 30]", "values": [{"measurement": "herbicidal activity", "setting": "Amaranthus retroflexus; 250 g/ha", "value": "very good (a very good herbicidal activity is given at values of at least 85)"}, {"measurement": "herbicidal activity", "setting": "Echinocloa crus-galli; 250 g/ha", "value": "very good (a very good herbicidal activity is given at values of at least 85)"}, {"measurement": "herbicidal activity", "setting": "Setaria faberi; 250 g/ha", "value": "very good (a very good herbicidal activity is given at values of at least 85)"}]}, {"smiles": "CCC(F)(CC)c1nc(N)nc(Nc2c(F)c(F)nc(F)c2F)n1", "note": "[Example 71]", "values": [{"measurement": "herbicidal activity", "setting": "Amaranthus retroflexus; 250 g/ha", "value": "very good (a very good herbicidal activity is given at values of at least 85)"}, {"measurement": "herbicidal activity", "setting": "Abutilon theophrasti; 250 g/ha", "value": "very good (a very good herbicidal activity is given at values of at least 85)"}, {"measurement": "herbicidal activity", "setting": "Setaria faberi; 250 g/ha", "value": "very good (a very good herbicidal activity is given at values of at least 85)"}]}, {"smiles": "CCC(C)(F)c1nc(N)nc(Nc2nc(F)c(F)c(Cl)c2F)n1", "note": "(centres unmarked) [Example 13]", "values": [{"measurement": "herbicidal activity", "setting": "Amaranthus retroflexus; 62.5 g/ha", "value": "very good (a very good herbicidal activity is given at values of at least 85)"}, {"measurement": "herbicidal activity", "setting": "Echinocloa crus-galli; 62.5 g/ha", "value": "very good (a very good herbicidal activity is given at values of at least 85)"}, {"measurement": "herbicidal activity", "setting": "Setaria faberi; 62.5 g/ha", "value": "very good (a very good herbicidal activity is given at values of at least 85)"}]}, {"smiles": "CC(C)(C#N)c1nc(N)nc(Nc2c(F)c(F)nc(F)c2F)n1", "note": "[Example 57]", "values": [{"measurement": "herbicidal activity", "setting": "Amaranthus retroflexus; 250 g/ha", "value": "very good (a very good herbicidal activity is given at values of at least 85)"}, {"measurement": "herbicidal activity", "setting": "Abutilon theophrasti; 250 g/ha", "value": "very good (a very good herbicidal activity is given at values of at least 85)"}]}, {"smiles": "Nc1nc(Nc2nc(F)c(F)c(Cl)c2F)nc(C2(Cl)CCCC2)n1", "note": "[Example 11]", "values": [{"measurement": "herbicidal activity", "setting": "Amaranthus retroflexus; 500 g/ha", "value": "very good (a very good herbicidal activity is given at values of at least 85)"}, {"measurement": "herbicidal activity", "setting": "Abutilon theophrasti; 500 g/ha", "value": "very good (a very good herbicidal activity is given at values of at least 85)"}, {"measurement": "herbicidal activity", "setting": "Setaria faberi; 500 g/ha", "value": "very good (a very good herbicidal activity is given at values of at least 85)"}]}, {"smiles": "CCC(C)(F)c1nc(N)nc(Nc2c(F)c(F)nc(F)c2F)n1", "note": "(centres unmarked) [Example 52]", "values": [{"measurement": "herbicidal activity", "setting": "Amaranthus retroflexus; 250 g/ha", "value": "very good (a very good herbicidal activity is given at values of at least 85)"}, {"measurement": "herbicidal activity", "setting": "Echinocloa crus-galli; 250 g/ha", "value": "very good (a very good herbicidal activity is given at values of at least 85)"}, {"measurement": "herbicidal activity", "setting": "Abutilon theophrasti; 250 g/ha", "value": "very good (a very good herbicidal activity is given at values of at least 85)"}]}, {"smiles": "Nc1nc(Nc2nc(F)c(F)c(Cl)c2F)nc(C2CCCC2)n1", "note": "[Example 17]", "values": [{"measurement": "herbicidal activity", "setting": "Amaranthus retroflexus; 250 g/ha", "value": "good (a good herbicidal activity is given at values of at least 70)"}]}, {"smiles": "COC(C)c1nc(N)nc(Nc2c(F)c(F)nc(F)c2F)n1", "note": "(centres unmarked) [Example 61]", "values": [{"measurement": "herbicidal activity", "setting": "Amaranthus retroflexus; 500 g/ha", "value": "very good (a very good herbicidal activity is given at values of at least 85)"}, {"measurement": "herbicidal activity", "setting": "Abutilon theophrasti; 500 g/ha", "value": "very good (a very good herbicidal activity is given at values of at least 85)"}]}, {"smiles": "CC1(c2nc(N)nc(Nc3c(F)c(F)nc(F)c3F)n2)CCCCC1", "note": "[Example 68]", "values": [{"measurement": "herbicidal activity", "setting": "Amaranthus retroflexus; 250 g/ha", "value": "very good (a very good herbicidal activity is given at values of at least 85)"}]}, {"smiles": "CC(C)C(F)c1nc(N)nc(Nc2nc(F)c(F)c(Cl)c2F)n1", "note": "(centres unmarked) [Example 32]", "values": [{"measurement": "herbicidal activity", "setting": "Amaranthus retroflexus; 125 g/ha", "value": "very good (a very good herbicidal activity is given at values of at least 85)"}, {"measurement": "herbicidal activity", "setting": "Echinocloa crus-galli; 125 g/ha", "value": "very good (a very good herbicidal activity is given at values of at least 85)"}, {"measurement": "herbicidal activity", "setting": "Setaria faberi; 125 g/ha", "value": "very good (a very good herbicidal activity is given at values of at least 85)"}]}, {"smiles": "COC(C)(C)c1nc(N)nc(Nc2nc(F)c(F)c(Cl)c2F)n1", "note": "[Example 22]", "values": [{"measurement": "herbicidal activity", "setting": "Amaranthus retroflexus; 250 g/ha", "value": "very good (a very good herbicidal activity is given at values of at least 85)"}]}, {"smiles": "CCC(F)c1nc(N)nc(Nc2c(F)c(F)nc(F)c2F)n1", "note": "(centres unmarked) [Example 63]", "values": [{"measurement": "herbicidal activity", "setting": "Amaranthus retroflexus; 125 g/ha", "value": "very good (a very good herbicidal activity is given at values of at least 85)"}, {"measurement": "herbicidal activity", "setting": "Abutilon theophrasti; 125 g/ha", "value": "very good (a very good herbicidal activity is given at values of at least 85)"}, {"measurement": "herbicidal activity", "setting": "Setaria faberi; 125 g/ha", "value": "very good (a very good herbicidal activity is given at values of at least 85)"}]}, {"smiles": "CC1CCC(c2nc(N)nc(Nc3c(F)c(F)nc(F)c3F)n2)CC1", "note": "(centres unmarked) [Example 64]", "values": [{"measurement": "herbicidal activity", "setting": "Amaranthus retroflexus; 250 g/ha", "value": "very good (a very good herbicidal activity is given at values of at least 85)"}, {"measurement": "herbicidal activity", "setting": "Abutilon theophrasti; 250 g/ha", "value": "very good (a very good herbicidal activity is given at values of at least 85)"}, {"measurement": "herbicidal activity", "setting": "Setaria faberi; 250 g/ha", "value": "very good (a very good herbicidal activity is given at values of at least 85)"}]}]}
